Earlier results in patent publication US4024245A, “Antibiotic A-30912 and process for production thereof” (priority 1976, dated 1977).

Test system: dermatophytes
Conditions: F. Benz et al., Helv. Chim. Acta 57, 2459-2477 (1974)

For Echinocandin B, the activity against dermatophytes is given as “inactive against dermatophytes”.
